In patent US8183238B2, “Bicyclic and tricyclic compounds as KAT II inhibitors” (priority 2009, dated 2012) one finds IC50 data, which are given here for 52 compounds.

In the assay the target is human KAT II (hKAT II) enzyme (Homo sapiens, UniProt Q8N5Z0). The experiment in a line: KAT II Inhibition Spectra Assay. The following applies: hKAT II, decrease in OD370, 37° C., 15-20 h, read-out: KATII IC50. Type of assay: biochemical. The method, boiled down: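 hKAT II (15 nM, 3× stock) converts L-kynurenine (3 mM, 3× stock) with α-ketoglutarate and PLP in Tris acetate; 15–20 h at 37 °C. Inhibition of the OD370 decrease read versus DMSO wells across a concentration range gives IC50.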
Chain of human KAT II (hKAT II) enzyme (Q8N5Z0 30-425): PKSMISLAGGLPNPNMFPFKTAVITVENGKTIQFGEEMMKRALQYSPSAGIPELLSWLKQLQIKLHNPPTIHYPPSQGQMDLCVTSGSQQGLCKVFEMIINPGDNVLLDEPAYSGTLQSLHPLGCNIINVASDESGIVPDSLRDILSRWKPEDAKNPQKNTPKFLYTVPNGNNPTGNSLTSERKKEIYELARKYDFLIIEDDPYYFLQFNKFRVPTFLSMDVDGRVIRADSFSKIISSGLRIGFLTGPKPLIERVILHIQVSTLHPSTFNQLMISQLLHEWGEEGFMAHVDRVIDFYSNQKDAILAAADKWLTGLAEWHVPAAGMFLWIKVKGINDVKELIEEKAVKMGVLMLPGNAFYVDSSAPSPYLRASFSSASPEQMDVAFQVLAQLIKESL

The structures appear in SMILES notation. Structures can show the parent of a compound that is named as a salt. Where two headings read alike, the source gives them in different places.

In general, IC50 refers to the point on the concentration scale where inhibition reaches its midpoint.

As to `NC1Cc2cc(F)ccc2N(O)C1=O` (stereo not shown) [Example 2, 3-amino-6-fluoro-1-hydroxy-3,4-dihydroquinolin-2(1H)-one, hydrochloride salt], the IC50 (Table 5) worked out at 23.4 nM.
The same measure, in the same setting: in the case of `N[C@H]1Cc2cccc(OC(F)(F)F)c2N(O)C1=O` [Example 37] it was 34.1 nM.
`N[C@H]1Cc2cc(Oc3ccc(Cl)c(C(F)(F)F)c3)ccc2N(O)C1=O` [Example 158, (3S)-3-amino-6-[4-chloro-3-(trifluoromethyl)phenoxy]-1-hydroxy-3,4-dihydroquinolin-2(1H)-one, trifluoroacetate salt]: the IC50 (Table 6) worked out at 126 nM.
On to `N[C@H]1Cc2ccncc2N(O)C1=O` [Example 130], for which the IC50 (Table 6) was found to be 1570 nM.
Take `NC1Cc2ccc(-c3cccc(F)c3F)cc2N(O)C1=O` (stereo not shown) [Example 40, 3-amino-7-(2,3-difluorophenyl)-1-hydroxy-3,4-dihydroquinolin-2(1H)-one, trifluoroacetate salt]: the IC50 (Table 5) amounted to 122 nM.
Same read-out and setting: the same measure for `N[C@H]1Cc2cc(Cl)cc(C(F)(F)F)c2N(O)C1=O` [Example 35]: 49.2 nM.
As for `NC1Cc2cccnc2N(O)C1=O` (stereo not shown) [Example 1, 3-amino-1-hydroxy-3,4-dihydro-1,8-naphthyridin-2(1H)-one, trifluoroacetate salt], under “Table 5”, the IC50 was 52.7 nM.
`N[C@H]1Cc2cc(-c3cc(F)ccc3F)ccc2N(O)C1=O` [Example 133, (3S)-3-amino-6-(2,5-difluorophenyl)-1-hydroxy-3,4-dihydroquinolin-2(1H)-one, trifluoroacetate salt]: the IC50 (Table 6) was determined as 86.6 nM.
For `NC1Cc2cc(Cl)cc(C(F)(F)F)c2N(O)C1=O` (stereo not shown) [Example 23], the IC50 (Table 5) was found to be 65.3 nM.
Turning to `COc1ncccc1-c1ccc2c(c1)C[C@H](N)C(=O)N2O` [Example 151, (3S)-3-amino-1-hydroxy-6-(2-methoxypyridin-3-yl)-3,4-dihydroquinolin-2(1H)-one, trifluoroacetate salt], where the note is “Table 6”, the concentration for half-maximal inhibition (IC50) worked out at 63.6 nM.
Still for that read-out and setting: in the case of `NC1Cc2cc(Oc3cc(F)ccc3F)ccc2N(O)C1=O` (stereo not shown) [Example 89] it was 36.4 nM; in that of `NC1Cc2cc(Oc3ccc(F)cc3F)ccc2N(O)C1=O` (stereo not shown) [Example 85], 39.9 nM.
Turning to `NC1Cc2ccc(-c3ccccc3Cl)cc2N(O)C1=O` (stereo not shown) [Example 45, 3-amino-7-(2-chlorophenyl)-1-hydroxy-3,4-dihydroquinolin-2(1H)-one, trifluoroacetate salt], the IC50 (Table 5) stood at 235 nM.
On the same count and under the same terms, the same measure for `NC1Cc2cc(Cl)ccc2N(O)C1=O` (stereo not shown) [Example 16]: 22.7 nM.
As for `COc1ccc(Oc2ccc3c(c2)CC(N)C(=O)N3O)cc1` (stereo not shown) [Example 91], under “Table 6”, the IC50 stood at 36.2 nM.
Same read-out and setting: in the case of `COc1cc2c(cc1Cc1cccc(C#N)c1)C[C@H](N)C(=O)N2O` [Example 126] it was 30.9 nM.
`N#Cc1ccccc1-c1ccc2c(c1)N(O)C(=O)C(N)C2` (stereo not shown) [Example 62, 2-(3-amino-1-hydroxy-2-oxo-1,2,3,4-tetrahydroquinolin-7-yl)benzonitrile, trifluoroacetate salt]: the IC50 (Table 5) was found to be 135 nM.
Same read-out and setting: in the case of `NC1Cc2cc(C(F)(F)F)ccc2N(O)C1=O` (stereo not shown) [Example 10, 3-amino-1-hydroxy-6-(trifluoromethyl)-3,4-dihydroquinolin-2(1H)-one, hydrochloride salt] it was 73.7 nM.
Take `N[C@H]1Cc2cc(Oc3cc(F)cc(C(F)(F)F)c3)ccc2N(O)C1=O` [Example 166, (3S)-3-amino-6-[3-fluoro-5-(trifluoromethyl)phenoxy]-1-hydroxy-3,4-dihydroquinolin-2(1H)-one, trifluoroacetate salt]: the IC50 (Table 6) was 128 nM.
On to `NC1Cc2c(ccc3ccccc23)N(O)C1=O` (stereo not shown) [Example 11, 2-amino-4-hydroxy-1,2-dihydrobenzo[f]quinolin-3(4H)-one], for which, for the setting “Table 5”, the IC50 was found to be 121 nM.
Consider `NC1Cc2cc(Oc3ccccc3F)ccc2N(O)C1=O` (stereo not shown) [Example 107], for which the IC50 (Table 6) was 56.7 nM.
`Cc1ccc2c(c1)CC(N)C(=O)N2O` (stereo not shown) [Example 18]: the IC50 (Table 5) was 139 nM.
`N[C@H]1Cc2cc(Cl)c(Cl)cc2N(O)C1=O` [Example 115]: the IC50 (Table 6) was determined as 52.7 nM.
Still for that read-out and setting: the same measure for `N[C@H]1Cc2cccc(-c3ccccc3)c2N(O)C1=O` [Example 97]: 313 nM; for `N[C@H]1Cc2cc(-c3cccc(Cl)c3Cl)ccc2N(O)C1=O` [Example 145, (3S)-3-amino-6-(2,3-dichlorophenyl)-1-hydroxy-3,4-dihydroquinolin-2(1H)-one, trifluoroacetate salt]: 179 nM.
Take `CC(C)Oc1ccc(-c2ccc3c(c2)N(O)C(=O)C(N)C3)cc1` (stereo not shown) [Example 60, 3-amino-1-hydroxy-7-(4-isopropoxyphenyl)-3,4-dihydroquinolin-2(1H)-one, trifluoroacetate salt]: the IC50 (Table 5) came to 161 nM.
Still for that read-out and setting: in the case of `N[C@@H]1Cc2ccc(Br)cc2N(O)C1=O` [Example 5, (3R)-3-amino-7-bromo-1-hydroxy-3,4-dihydroquinolin-2(1H)-one] it was 131 nM.
With `N[C@H]1Cc2cc(-c3ccc(F)cc3F)ccc2N(O)C1=O` [Example 147, (3S)-3-amino-6-(2,4-difluorophenyl)-1-hydroxy-3,4-dihydroquinolin-2(1H)-one, trifluoroacetate salt], the IC50 (Table 6) amounted to 75.6 nM.
For the compound `N[C@H]1Cc2c(Cl)cccc2N(O)C1=O` [Example 22], under “Table 5”, the IC50 turned out to be 45.2 nM.
The same measure, in the same setting: the same measure for `COc1ccc(-c2ccc3c(c2)N(O)C(=O)C(N)C3)cc1F` (stereo not shown) [Example 49, 3-amino-7-(3-fluoro-4-methoxyphenyl)-1-hydroxy-3,4-dihydroquinolin-2(1H)-one, trifluoroacetate salt]: 105 nM.
On the same count and under the same terms, the same measure for `N#Cc1cccc2c1N(O)C(=O)C(N)C2` (stereo not shown) [Example 33]: 33 nM.
Consider `N[C@H]1Cc2cc(-c3cc(F)ccc3Cl)ccc2N(O)C1=O` [Example 152, (3S)-3-amino-6-(2-chloro-5-fluorophenyl)-1-hydroxy-3,4-dihydroquinolin-2(1H)-one, trifluoroacetate salt], for which the IC50 (Table 6) was 94 nM.
Consider `CC(C)c1ccc(-c2ccc3c(c2)N(O)C(=O)C(N)C3)cc1` (stereo not shown) [Example 55, 3-amino-1-hydroxy-7-(4-isopropylphenyl)-3,4-dihydroquinolin-2(1H)-one, trifluoroacetate salt], for which the IC50 (Table 5) turned out to be 141 nM.
Still for that read-out and setting: in the case of `NC1Cc2cc(C3CC3)ccc2N(O)C1=O` (stereo not shown) [Example 21] it was 46.2 nM; in that of `N[C@H]1Cc2ccc(Br)cc2N(O)C1=O` [Example 6, (3S)-3-amino-7-bromo-1-hydroxy-3,4-dihydroquinolin-2(1H)-one], 25.4 nM.
With `N[C@H]1Cc2cc(Cc3ccccc3)ccc2N(O)C1=O` [Example 68, (3S)-3-amino-6-benzyl-1-hydroxy-3,4-dihydroquinolin-2(1H)-one, trifluoroacetic acid salt], the IC50 (Table 6) turned out to be 42.7 nM.
The same measure, in the same setting: the same measure for `NC1Cc2cc(Oc3cccc(OC(F)(F)F)c3)ccc2N(O)C1=O` (stereo not shown) [Example 94]: 43.9 nM.
In the case of `N[C@H]1Cc2cc(Cl)cc(F)c2N(O)C1=O` [Example 31], the IC50 (Table 5) worked out at 49.7 nM.
Take `N#Cc1ccc(Oc2ccc3c(c2)CC(N)C(=O)N3O)cc1` (stereo not shown) [Example 99]: where the note is “Table 6”, the IC50 was determined as 19.8 nM.
Same read-out and setting: in the case of `N[C@H]1Cc2c(ccc(F)c2F)N(O)C1=O` [Example 114] it was 37 nM; in that of `N[C@H]1Cc2c(ccc(Cl)c2F)N(O)C1=O` [Example 117], 53.7 nM.
The same measure, in the same setting: the same measure for `CCc1cccc2c1N(O)C(=O)[C@@H](N)C2` [Example 110]: 983 nM.
On the same count and under the same terms, in the case of `NC1Cc2cc(F)cc(Oc3ccccc3)c2N(O)C1=O` (stereo not shown) [Example 86] it was 65 nM.
With `NC1Cc2cccc(C(F)(F)F)c2N(O)C1=O` (stereo not shown) [Example 3, 3-amino-1-hydroxy-8-(trifluoromethyl)-3,4-dihydroquinolin-2(1H)-one], the IC50 (Table 5) came to 204 nM.
In the case of `N[C@H]1Cc2cc(Oc3ccc(F)c(Cl)c3)ccc2N(O)C1=O` [Example 156, (3S)-3-amino-6-(3-chloro-4-fluorophenoxy)-1-hydroxy-3,4-dihydroquinolin-2(1H)-one, trifluoroacetate salt], the IC50 (Table 6) was found to be 86.7 nM.
For the compound `NC1Cc2ccc(-c3ccccc3OC(F)(F)F)cc2N(O)C1=O` (stereo not shown) [Example 41, 3-amino-1-hydroxy-7-[2-(trifluoromethoxy)phenyl]-3,4-dihydroquinolin-2(1H)-one, trifluoroacetate salt], the IC50 (Table 5) amounted to 257 nM.
`N[C@H]1Cc2cc(-c3ccccc3)ccc2N(O)C1=O` [Example 150, (3S)-3-amino-1-hydroxy-6-phenyl-3,4-dihydroquinolin-2(1H)-one, trifluoroacetate salt]: the IC50 (Table 6) amounted to 96.7 nM.
The same measure, in the same setting: the same measure for `NC1Cc2cc(Oc3cccc(Cl)c3)ccc2N(O)C1=O` (stereo not shown) [Example 101]: 39.7 nM.
Same read-out and setting: the same measure for `COc1ccc(-c2ccc3c(c2)C[C@H](N)C(=O)N3O)c(C)c1` [Example 137, (3S)-3-amino-1-hydroxy-6-(4-methoxy-2-methylphenyl)-3,4-dihydroquinolin-2(1H)-one, trifluoroacetate salt]: 69 nM.
Still for that read-out and setting: in the case of `N[C@H]1Cc2cc(-c3ccc4c(c3)CCO4)ccc2N(O)C1=O` [Example 138, (3S)-3-amino-6-(2,3-dihydro-1-benzofuran-5-yl)-1-hydroxy-3,4-dihydroquinolin-2(1H)-one, trifluoroacetate salt] it was 156 nM; in that of `COc1cc(Cl)c2c(c1)N(O)C(=O)[C@@H](N)C2` [Example 104], 307 nM.
Turning to `N[C@H]1Cc2ccc(OCc3ccccc3)cc2N(O)C1=O` [Example 34], the IC50 (Table 5) was found to be 35.6 nM.
